Results published in patent US5410024A, “Human cancer inhibitory pentapeptide amides” (Arizona Board of Regents acting on behalf of Arizona State …, priority 1993, dated 1995).

Key:
Format in all cases: cell-based
[1] = tested on: human tumor cell lines; test: Inhibition of human tumor cell lines (general statements)
From the text: Current research in the control of cancer in the United States is coordinated by the National Cancer Institute (NCI). To determine whether a substance has anti-cancer properties, the NCI has established a systematic protocol. This protocol, which involves the testing of a substance against a standard cell line panel containing 60 human tumor cell lines, has been verified and is accepted in scientific circles. The protocol, and the established statistical means for analyzing the results obtained by the standardized testing are fully described in the literature. See: Boyd, Dr. Michael R., Principles & Practice of Oncology, PPO Updates, Volume 3, Number 10, October 1989, for an in depth description of the testing protocol; and Paull, K. D., "Display and Analysis of Patterns of Differential Activity of Drugs Against Human Tumor Cell Lines; Development of Mean Graph and COMPARE Algorithm", Journal of the National Cancer Institute Reports, Vol. 81, No. 14, Page 1088, Jul. 14, 1989 for a description of the methods of statistical analysis. Both of these references are incorporated herein by this reference thereto.

[2] = tested on: SK-MEL-5; test: NCI human tumor cell line screen, Melanoma SK-MEL-5; details: Melanoma SK-MEL-5
From the text: (§1) Current research in the control of cancer in the United States is coordinated by the National Cancer Institute (NCI). To determine whether a substance has anti-cancer properties, the NCI has established a systematic protocol. […] The protocol, and the established statistical means for analyzing the results obtained by the standardized testing are fully described in the literature. […] Both of these references are incorporated herein by this reference thereto.

[3] = tested on: KM20L2; test: NCI human tumor cell line screen, Colon KM20L2; details: for GI-50 / LC-50 / TGI: Colon KM20L2
From the text: as §1

[4] = tested on: NCI-H460; test: NCI human tumor cell line screen, Lung-NSC NCI-H460; details: Lung-NSC NCI-H460
From the text: as §1

[5] = tested on: A498; test: NCI human tumor cell line screen, Renal A498; details: for GI-50 / LC-50 / TGI: Renal A498
From the text: as §1

[6] = tested on: SF-295; test: NCI human tumor cell line screen, CNS SF-295; details: CNS SF-295
From the text: as §1

[7] = tested on: OVCAR-3; test: NCI human tumor cell line screen, Ovarian OVCAR-3; details: Ovarian OVCAR-3
From the text: as §1

Substance: (R)-Doe-isoDolastatin 10 [reference compound]
- human cancer cell line activity as compared to Dolastatin 10 [1]: did not show any significant difference

Substance: L-Dolavalyl-L-Valyl-N-Methyl-(S,S,R)-Dolaisoleucyl-(S,R,R)-Dolaproyl-L-Phenylalanineamide-N-(1-adamantane) [Compound 9j]
- GI-50 [2]: 0.000022 µg/mL
- LC-50 [2]: > 0.0001 µg/mL
- TGI [2]: > 0.1 ng/mL
- GI-50 [3]: 0.000027 µg/mL
- LC-50 [3]: > 0.0001 µg/mL
- TGI [3]: 0.072 ng/mL
- GI-50 [4]: 0.000014 µg/mL
- LC-50 [4]: > 0.0001 µg/mL
- TGI [4]: 0.057 ng/mL
- GI-50 [5]: 0.000034 µg/mL
- LC-50 [5]: > 0.0001 µg/mL
- TGI [5]: > 0.1 ng/mL
- GI-50 [6]: 0.000030 µg/mL
- LC-50 [6]: > 0.0001 µg/mL
- TGI [6]: > 0.1 ng/mL
- GI-50 [7]: 0.000019 µg/mL
- LC-50 [7]: > 0.0001 µg/mL
- TGI [7]: 0.055 ng/mL

Substance: L-Dolavalyl-L-Valyl-N-Methyl-(S,S,R)-Dolaisoleucyl-(S,R,R)-Dolaproyl-L-Phenylalanineamide-N-(2-benzothiazole) [Compound 9e]
- GI-50 [2]: 0.000000030 µg/mL
- TGI [2]: > 0.001 ng/mL
- GI50 ([1]; for at least six cell lines): less than 10^-7 μg/ml
- TGI [3]: 0.0007 ng/mL
- GI50, minipanel cell line E ([3]; minipanel comparison): 0.00026 ng/mL
- GI-50 [4]: 0.000000039 µg/mL
- TGI [4]: 0.00044 ng/mL
- TGI [5]: > 0.001 ng/mL
- GI50, minipanel cell line C ([5]; minipanel comparison, column C (key not visible; values match A498)): 0.00023 ng/mL
- GI-50 [6]: 0.00000011 µg/mL
- TGI [6]: 0.00096 ng/mL
- GI-50 [7]: 0.000000033 µg/mL
- TGI [7]: 0.00019 ng/mL

Substance: L-Dolavalyl-L-Valyl-N-Methyl-(S,S,R)-Dolaisoleucyl-(S,R,R)-Dolaproyl-L-Phenylalanineamide-N-(2-thiazole) [Compound 9a]
- GI-50 [2]: 0.0000014 µg/mL
- TGI [2]: 0.08 ng/mL
- GI-50 [3]: 0.0000020 µg/mL
- TGI [3]: 0.011 ng/mL
- GI-50 [4]: 0.0000018 µg/mL
- TGI [4]: 0.009 ng/mL
- GI-50 [5]: 0.0000056 µg/mL
- TGI [5]: 0.09 ng/mL
- GI-50 [6]: 0.0000038 µg/mL
- TGI [6]: > 0.1 ng/mL
- GI-50 [7]: 0.0000005 µg/mL
- LC-50 [7]: 0.000088 µg/mL
- TGI [7]: 0.0044 ng/mL

Substance: L-Dolavalyl-L-Valyl-N-Methyl-(S,S,R)-Dolaisoleucyl-(S,R,R)-Dolaproyl-L-Phenylalanineamide-N-(methenyl-2-pyridine) [Compound 9i]
- GI-50 [2]: 0.000029 µg/mL
- LC-50 [2]: > 0.01 µg/mL
- TGI [2]: > 10 ng/mL
- GI-50 [3]: 0.00033 µg/mL
- LC-50 [3]: > 0.01 µg/mL
- TGI [3]: > 10 ng/mL
- GI-50 [4]: 0.000051 µg/mL
- LC-50 [4]: > 0.01 µg/mL
- TGI [4]: 1 ng/mL
- GI-50 [5]: 0.00059 µg/mL
- LC-50 [5]: > 0.01 µg/mL
- TGI [5]: > 10 ng/mL
- GI-50 [6]: 0.00036 µg/mL
- LC-50 [6]: > 0.01 µg/mL
- TGI [6]: > 10 ng/mL
- GI-50 [7]: 0.000056 µg/mL
- LC-50 [7]: > 0.01 µg/mL
- TGI [7]: 2 ng/mL

Substance: L-Dolavalyl-L-Valyl-N-Methyl-(S,S,R)-Dolaisoleucyl-(S,R,R)-Dolaproyl-L-Phenylalanineamide-N-(methenyl-2-thiophene) [Compound 9h]
- GI-50 [2]: < 0.000001 µg/mL
- LC-50 [2]: > 0.01 µg/mL
- TGI [2]: > 10 ng/mL
- GI-50 [3]: 0.000049 µg/mL
- LC-50 [3]: > 0.01 µg/mL
- TGI [3]: 1.3 ng/mL
- GI-50 [4]: 0.0000089 µg/mL
- LC-50 [4]: > 0.01 µg/mL
- TGI [4]: 0.37 ng/mL
- GI-50 [5]: 0.000055 µg/mL
- LC-50 [5]: > 0.01 µg/mL
- TGI [5]: 6.9 ng/mL
- GI-50 [6]: 0.00014 µg/mL
- LC-50 [6]: > 0.01 µg/mL
- TGI [6]: > 10 ng/mL
- GI-50 [7]: < 0.000001 µg/mL
- LC-50 [7]: 0.0097 µg/mL
- TGI [7]: 0.28 ng/mL

Substance: L-Dolavalyl-L-Valyl-N-Methyl-(S,S,R)-Dolaisoleucyl-(S,R,R)-Dolaproyl-L-Phenylalanineamide-N-[2-(1,3,4-thiadiazole)] [Compound 9d]
- GI-50 [2]: 0.0000082 µg/mL
- LC-50 [2]: 0.00043 µg/mL
- TGI [2]: 0.007 ng/mL
- GI-50 [3]: 0.0000099 µg/mL
- LC-50 [3]: 0.00069 µg/mL
- TGI [3]: 0.015 ng/mL
- GI-50 [4]: 0.0000036 µg/mL
- LC-50 [4]: > 0.0001 µg/mL
- TGI [4]: 0.061 ng/mL
- GI-50 [5]: 0.000039 µg/mL
- LC-50 [5]: > 0.0001 µg/mL
- TGI [5]: > 0.1 ng/mL
- GI-50 [6]: 0.000024 µg/mL
- LC-50 [6]: > 0.0001 µg/mL
- TGI [6]: > 0.1 ng/mL
- GI-50 [7]: 0.0000031 µg/mL
- LC-50 [7]: > 0.0001 µg/mL
- TGI [7]: 0.16 ng/mL

Substance: L-Dolavalyl-L-Valyl-N-Methyl-(S,S,R)-Dolaisoleucyl-(S,R,R)-Dolaproyl-L-Phenylalanineamide-N-[2-(4-methylthiazole)] [Compound 9b]
- GI-50 [2]: 0.00000081 µg/mL
- LC-50 [2]: > 0.0001 µg/mL
- TGI [2]: > 0.1 ng/mL
- GI-50 [3]: 0.0000034 µg/mL
- LC-50 [3]: > 0.0001 µg/mL
- TGI [3]: 0.017 ng/mL
- GI-50 [4]: 0.00000046 µg/mL
- LC-50 [4]: > 0.0001 µg/mL
- TGI [4]: 0.013 ng/mL
- GI-50 [5]: 0.0000053 µg/mL
- LC-50 [5]: > 0.0001 µg/mL
- TGI [5]: > 0.1 ng/mL
- GI-50 [6]: 0.0000026 µg/mL
- LC-50 [6]: > 0.0001 µg/mL
- TGI [6]: > 0.1 ng/mL
- GI-50 [7]: 0.00000020 µg/mL
- TGI [7]: 0.012 ng/mL

Substance: L-Dolavalyl-L-Valyl-N-Methyl-(S,S,R)-Dolaisoleucyl-(S,R,R)-Dolaproyl-L-Phenylalanineamide-N-[2-(4-phenylthiazole)] [Compound 9c]
- GI-50 [2]: 0.000043 µg/mL
- LC-50 [2]: > 0.001 µg/mL
- TGI [2]: 0.33 ng/mL
- GI-50 [3]: 0.0002 µg/mL
- LC-50 [3]: > 0.001 µg/mL
- TGI [3]: 0.75 ng/mL
- GI-50 [4]: 0.000056 µg/mL
- LC-50 [4]: > 0.001 µg/mL
- TGI [4]: 0.51 ng/mL
- GI-50 [5]: 0.000057 µg/mL
- LC-50 [5]: > 0.001 µg/mL
- TGI [5]: 0.72 ng/mL
- GI-50 [6]: 0.000065 µg/mL
- LC-50 [6]: > 0.001 µg/mL
- TGI [6]: > 1 ng/mL
- GI-50 [7]: 0.000020 µg/mL
- LC-50 [7]: > 0.001 µg/mL
- TGI [7]: 0.13 ng/mL

Substance: L-Dolavalyl-L-Valyl-N-Methyl-(S,S,R)-Dolaisoleucyl-(S,R,R)-Dolaproyl-L-Phenylalanineamide-N-[2-(6-methoxybenzo-thiazole)] [Compound 9f]
- GI-50 [2]: 0.000090 µg/mL
- LC-50 [2]: > 0.01 µg/mL
- TGI [2]: > 10 ng/mL
- GI-50 [3]: 0.00036 µg/mL
- LC-50 [3]: > 0.01 µg/mL
- TGI [3]: 2.2 ng/mL
- GI-50 [4]: 0.00033 µg/mL
- LC-50 [4]: > 0.01 µg/mL
- TGI [4]: 1.6 ng/mL
- GI-50 [5]: 0.00037 µg/mL
- LC-50 [5]: > 0.01 µg/mL
- TGI [5]: > 10 ng/mL
- GI-50 [6]: 0.00055 µg/mL
- LC-50 [6]: > 0.01 µg/mL
- TGI [6]: > 10 ng/mL
- GI-50 [7]: 0.00032 µg/mL
- LC-50 [7]: > 0.01 µg/mL
- TGI [7]: 1.1 ng/mL
